Laboratory results as given in publication PMC4508061, “Selectivity Profiling and Biological Activity of Novel β-Carbolines as Potent and Selective DYRK1 Kinase Inhibitors” (PLoS ONE, 2015).
Entries after “also recorded” stand apart in the source; their conditions may differ.

Assays:
[1] = biological target: Aurora-A (Homo sapiens, UniProt O14965); experiment: ProQinase radiometric kinase panel; details: mean of 2 exp.
[2] = biological target: PAK3 (Homo sapiens, UniProt O75914); experiment: ProQinase radiometric kinase panel; details: mean of 2 exp.
[3] = biological target: NEK6 (Homo sapiens, UniProt Q9HC98); experiment: ProQinase radiometric kinase panel; details: mean of 2 exp.
[4] = biological target: TSSK1 (Homo sapiens, UniProt Q9BXA7); experiment: ProQinase radiometric kinase panel; details: mean of 2 exp.
[5] = biological target: ERK7 (Homo sapiens, UniProt Q8TD08); experiment: ProQinase radiometric kinase panel; details: mean of 2 exp.
[6] = biological target: PKC-theta (Homo sapiens, UniProt Q04759); experiment: ProQinase radiometric kinase panel; details: mean of 2 exp.
[7] = biological target: PKC-beta2 (Homo sapiens, UniProt P05771); experiment: ProQinase radiometric kinase panel; details: mean of 2 exp.
[8] = biological target: MYLK (Homo sapiens, UniProt Q15746); experiment: ProQinase radiometric kinase panel; details: mean of 2 exp.
[9] = biological target: RIPK2 (Homo sapiens, UniProt O43353); experiment: ProQinase radiometric kinase panel; details: mean of 2 exp.
[10] = biological target: PKA (Homo sapiens, UniProt P17612); experiment: ProQinase radiometric kinase panel; details: mean of 2 exp.
[11] = biological target: CK1-delta (Homo sapiens, UniProt P48730); experiment: ProQinase radiometric kinase panel; details: mean of 2 exp.
[12] = biological target: MINK1 (Homo sapiens, UniProt Q8N4C8); experiment: ProQinase radiometric kinase panel; details: mean of 2 exp.
[13] = biological target: HCK (Homo sapiens, UniProt P08631); experiment: ProQinase radiometric kinase panel; details: mean of 2 exp.
[14] = biological target: GRK6 (Homo sapiens, UniProt P43250); experiment: ProQinase radiometric kinase panel; details: mean of 2 exp.
[15] = biological target: NEK11 (Homo sapiens, UniProt Q8NG66); experiment: ProQinase radiometric kinase panel; details: mean of 2 exp.
[16] = biological target: JAK2 (Homo sapiens, UniProt O60674); experiment: ProQinase radiometric kinase panel; details: mean of 2 exp.
[17] = biological target: MUSK (Homo sapiens, UniProt O15146); experiment: ProQinase radiometric kinase panel; details: mean of 2 exp.
[18] = biological target: GRK4 (Homo sapiens, UniProt P32298); experiment: ProQinase radiometric kinase panel; details: mean of 2 exp.
[19] = biological target: CDK6/CycD1 (Homo sapiens, UniProt Q00534); experiment: ProQinase radiometric kinase panel; details: mean of 2 exp.
[20] = biological target: GSK3-alpha (Homo sapiens, UniProt P49840); experiment: ProQinase radiometric kinase panel; details: mean of 2 exp.
[21] = biological target: MET (Homo sapiens, UniProt P08581); experiment: ProQinase radiometric kinase panel; details: mean of 2 exp.
[22] = biological target: TYRO3 (Homo sapiens, UniProt Q06418); experiment: ProQinase radiometric kinase panel; details: mean of 2 exp.
[23] = biological target: CDK1/CycE1 (Homo sapiens, UniProt P06493); experiment: ProQinase radiometric kinase panel; details: mean of 2 exp.
[24] = biological target: MAP4K2 (Homo sapiens, UniProt Q12851); experiment: ProQinase radiometric kinase panel; details: mean of 2 exp.
[25] = biological target: MST2 (Homo sapiens, UniProt Q13188); experiment: ProQinase radiometric kinase panel; details: mean of 2 exp.
[26] = biological target: FAK (Homo sapiens, UniProt Q05397); experiment: ProQinase radiometric kinase panel; details: mean of 2 exp.
[27] = biological target: SLK (Homo sapiens, UniProt Q9H2G2); experiment: ProQinase radiometric kinase panel; details: mean of 2 exp.
[28] = biological target: SAK (Homo sapiens, UniProt O00444); experiment: ProQinase radiometric kinase panel; details: mean of 2 exp.
[29] = biological target: CAMK2B (Homo sapiens, UniProt Q13554); experiment: ProQinase radiometric kinase panel; details: mean of 2 exp.
[30] = biological target: T1, MAO-A (Homo sapiens, UniProt P21397); experiment: MAO-GLO assay; type: biochemical
T1 sequence (P21397 1-527): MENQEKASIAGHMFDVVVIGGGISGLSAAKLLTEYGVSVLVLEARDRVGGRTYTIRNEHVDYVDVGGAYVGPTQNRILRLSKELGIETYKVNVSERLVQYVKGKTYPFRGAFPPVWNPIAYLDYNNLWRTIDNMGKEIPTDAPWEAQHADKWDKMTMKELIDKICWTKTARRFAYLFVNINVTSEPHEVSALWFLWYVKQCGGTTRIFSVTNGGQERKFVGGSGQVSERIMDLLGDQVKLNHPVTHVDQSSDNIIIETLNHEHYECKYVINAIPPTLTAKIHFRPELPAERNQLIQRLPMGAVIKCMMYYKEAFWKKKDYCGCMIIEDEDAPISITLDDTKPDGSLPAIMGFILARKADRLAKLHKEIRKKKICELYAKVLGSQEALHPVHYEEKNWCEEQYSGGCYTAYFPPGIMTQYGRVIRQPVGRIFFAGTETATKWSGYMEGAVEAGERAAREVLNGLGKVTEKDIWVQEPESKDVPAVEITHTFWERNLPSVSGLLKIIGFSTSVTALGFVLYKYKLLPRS
Protocol: 2 were calculated. Kinase activity of DYRK1A was determined by radiometric assays using the peptide DYRKtide as a substrate. MAO-A activity was measured with the help of the MAO-GLO assay kit (Promega). IC50 values were calculated by curve fitting with the help of […]
the […] PRISM 5.0 program after automatic outlier elimination. The graphs present

[31] = biological target: MAPKAPK2 (Homo sapiens, UniProt P49137); experiment: ProQinase radiometric kinase panel; details: mean of 2 exp.

TYRO3, sequence (Q06418 41-890): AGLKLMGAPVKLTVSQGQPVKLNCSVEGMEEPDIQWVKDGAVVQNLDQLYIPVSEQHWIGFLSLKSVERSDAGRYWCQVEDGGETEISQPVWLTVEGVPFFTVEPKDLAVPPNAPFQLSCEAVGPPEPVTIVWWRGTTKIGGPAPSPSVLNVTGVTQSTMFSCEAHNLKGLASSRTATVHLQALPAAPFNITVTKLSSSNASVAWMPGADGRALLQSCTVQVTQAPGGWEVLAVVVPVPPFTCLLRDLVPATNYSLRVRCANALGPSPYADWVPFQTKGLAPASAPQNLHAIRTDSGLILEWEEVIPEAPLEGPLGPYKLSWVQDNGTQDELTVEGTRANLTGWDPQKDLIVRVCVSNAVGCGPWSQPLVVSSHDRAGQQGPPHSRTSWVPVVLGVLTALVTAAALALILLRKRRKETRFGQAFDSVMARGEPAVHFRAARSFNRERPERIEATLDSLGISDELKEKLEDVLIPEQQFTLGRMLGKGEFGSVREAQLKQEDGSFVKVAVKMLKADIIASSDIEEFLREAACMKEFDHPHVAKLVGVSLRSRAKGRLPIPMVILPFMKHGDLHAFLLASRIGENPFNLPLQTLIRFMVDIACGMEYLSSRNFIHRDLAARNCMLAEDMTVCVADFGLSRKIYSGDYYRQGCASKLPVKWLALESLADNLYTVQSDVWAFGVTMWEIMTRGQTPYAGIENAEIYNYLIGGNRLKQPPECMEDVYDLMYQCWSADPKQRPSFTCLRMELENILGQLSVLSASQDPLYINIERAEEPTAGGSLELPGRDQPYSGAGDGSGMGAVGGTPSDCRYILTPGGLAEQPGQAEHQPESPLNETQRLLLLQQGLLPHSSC
PKC-theta, sequence (Q04759 whole entry): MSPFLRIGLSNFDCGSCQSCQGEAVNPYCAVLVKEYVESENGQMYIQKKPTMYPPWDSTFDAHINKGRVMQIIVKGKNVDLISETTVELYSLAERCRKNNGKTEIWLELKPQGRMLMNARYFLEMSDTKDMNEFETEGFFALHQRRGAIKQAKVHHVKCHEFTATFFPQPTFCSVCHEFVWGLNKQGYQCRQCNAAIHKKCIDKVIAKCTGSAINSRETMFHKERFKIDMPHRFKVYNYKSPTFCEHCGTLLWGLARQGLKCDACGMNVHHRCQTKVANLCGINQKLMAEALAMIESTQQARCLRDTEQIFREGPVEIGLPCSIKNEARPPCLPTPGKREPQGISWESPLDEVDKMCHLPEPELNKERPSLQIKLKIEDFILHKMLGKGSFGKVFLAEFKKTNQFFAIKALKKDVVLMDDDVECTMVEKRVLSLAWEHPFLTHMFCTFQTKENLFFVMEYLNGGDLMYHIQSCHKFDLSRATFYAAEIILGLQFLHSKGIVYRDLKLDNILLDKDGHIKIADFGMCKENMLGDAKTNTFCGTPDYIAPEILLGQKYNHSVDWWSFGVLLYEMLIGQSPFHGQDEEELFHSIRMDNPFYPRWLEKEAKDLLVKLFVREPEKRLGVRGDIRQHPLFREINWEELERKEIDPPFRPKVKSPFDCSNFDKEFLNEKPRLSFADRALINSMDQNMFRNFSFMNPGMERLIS
MAP4K2, sequence (Q12851 whole entry): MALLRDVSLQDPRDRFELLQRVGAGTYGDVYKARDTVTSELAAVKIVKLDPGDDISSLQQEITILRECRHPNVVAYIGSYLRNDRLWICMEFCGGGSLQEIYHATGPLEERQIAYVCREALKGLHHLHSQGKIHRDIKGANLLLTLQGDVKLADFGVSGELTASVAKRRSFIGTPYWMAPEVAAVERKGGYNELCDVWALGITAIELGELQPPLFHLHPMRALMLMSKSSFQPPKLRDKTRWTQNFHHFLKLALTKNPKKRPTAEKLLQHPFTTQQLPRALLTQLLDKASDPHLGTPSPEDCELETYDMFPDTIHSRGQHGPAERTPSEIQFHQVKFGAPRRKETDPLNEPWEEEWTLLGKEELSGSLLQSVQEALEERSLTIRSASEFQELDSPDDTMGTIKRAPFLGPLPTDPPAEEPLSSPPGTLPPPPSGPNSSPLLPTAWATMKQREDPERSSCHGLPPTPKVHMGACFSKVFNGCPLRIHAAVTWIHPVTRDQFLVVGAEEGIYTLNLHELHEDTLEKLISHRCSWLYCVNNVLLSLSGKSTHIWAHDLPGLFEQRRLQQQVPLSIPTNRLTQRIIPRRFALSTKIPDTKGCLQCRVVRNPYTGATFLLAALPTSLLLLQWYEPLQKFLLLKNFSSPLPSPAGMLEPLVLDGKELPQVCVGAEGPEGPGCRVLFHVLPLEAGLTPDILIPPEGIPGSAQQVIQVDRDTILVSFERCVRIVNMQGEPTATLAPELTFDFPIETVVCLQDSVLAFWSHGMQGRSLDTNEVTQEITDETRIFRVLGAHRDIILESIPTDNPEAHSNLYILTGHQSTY
FAK, sequence (Q05397 whole entry): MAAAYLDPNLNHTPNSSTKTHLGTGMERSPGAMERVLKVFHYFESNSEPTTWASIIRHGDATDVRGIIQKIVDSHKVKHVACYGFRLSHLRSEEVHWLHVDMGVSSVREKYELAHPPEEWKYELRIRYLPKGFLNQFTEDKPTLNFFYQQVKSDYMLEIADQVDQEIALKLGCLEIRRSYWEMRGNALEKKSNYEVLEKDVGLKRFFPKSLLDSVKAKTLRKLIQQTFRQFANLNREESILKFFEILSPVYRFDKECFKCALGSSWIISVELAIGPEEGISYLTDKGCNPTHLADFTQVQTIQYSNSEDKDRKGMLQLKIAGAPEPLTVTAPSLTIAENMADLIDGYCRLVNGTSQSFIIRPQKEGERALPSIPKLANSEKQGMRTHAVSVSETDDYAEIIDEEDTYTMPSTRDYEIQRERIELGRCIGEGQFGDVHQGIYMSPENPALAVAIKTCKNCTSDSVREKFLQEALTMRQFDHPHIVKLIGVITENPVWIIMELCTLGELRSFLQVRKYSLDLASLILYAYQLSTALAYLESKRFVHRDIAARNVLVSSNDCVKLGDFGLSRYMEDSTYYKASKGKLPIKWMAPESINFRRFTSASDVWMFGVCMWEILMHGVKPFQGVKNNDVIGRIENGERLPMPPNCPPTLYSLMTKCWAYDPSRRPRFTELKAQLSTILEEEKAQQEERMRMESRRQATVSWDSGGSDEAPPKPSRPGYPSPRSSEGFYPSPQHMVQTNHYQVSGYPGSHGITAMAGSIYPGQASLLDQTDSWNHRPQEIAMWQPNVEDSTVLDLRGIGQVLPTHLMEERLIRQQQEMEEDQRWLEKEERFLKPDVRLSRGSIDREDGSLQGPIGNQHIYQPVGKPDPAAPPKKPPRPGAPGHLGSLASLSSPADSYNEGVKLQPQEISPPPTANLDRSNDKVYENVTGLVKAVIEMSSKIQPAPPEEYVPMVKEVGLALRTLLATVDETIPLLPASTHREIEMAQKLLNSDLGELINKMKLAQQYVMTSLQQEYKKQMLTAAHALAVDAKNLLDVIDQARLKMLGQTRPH
CK1-delta, sequence (P48730 whole entry): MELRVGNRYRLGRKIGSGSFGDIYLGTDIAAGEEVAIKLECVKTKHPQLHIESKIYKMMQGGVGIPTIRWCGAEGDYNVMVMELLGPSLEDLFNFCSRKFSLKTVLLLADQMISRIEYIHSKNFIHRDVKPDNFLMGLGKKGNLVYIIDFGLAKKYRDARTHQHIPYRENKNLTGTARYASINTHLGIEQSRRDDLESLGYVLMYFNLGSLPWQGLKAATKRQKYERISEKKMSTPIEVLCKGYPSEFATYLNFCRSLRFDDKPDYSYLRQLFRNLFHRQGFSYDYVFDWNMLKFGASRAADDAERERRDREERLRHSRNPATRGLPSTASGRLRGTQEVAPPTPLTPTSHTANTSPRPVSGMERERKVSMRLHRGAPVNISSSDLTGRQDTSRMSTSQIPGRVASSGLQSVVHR
CDK1/CycE1, sequence (P06493 whole entry): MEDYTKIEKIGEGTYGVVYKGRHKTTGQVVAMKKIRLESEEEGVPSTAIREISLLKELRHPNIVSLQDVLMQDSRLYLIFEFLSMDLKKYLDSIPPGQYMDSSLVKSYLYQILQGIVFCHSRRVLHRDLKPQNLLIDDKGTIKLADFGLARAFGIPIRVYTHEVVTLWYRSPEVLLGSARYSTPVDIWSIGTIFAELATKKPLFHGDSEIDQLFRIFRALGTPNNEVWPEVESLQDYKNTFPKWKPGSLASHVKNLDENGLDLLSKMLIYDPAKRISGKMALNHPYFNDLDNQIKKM
CDK1/CycE1, sequence (P24864 whole entry partner): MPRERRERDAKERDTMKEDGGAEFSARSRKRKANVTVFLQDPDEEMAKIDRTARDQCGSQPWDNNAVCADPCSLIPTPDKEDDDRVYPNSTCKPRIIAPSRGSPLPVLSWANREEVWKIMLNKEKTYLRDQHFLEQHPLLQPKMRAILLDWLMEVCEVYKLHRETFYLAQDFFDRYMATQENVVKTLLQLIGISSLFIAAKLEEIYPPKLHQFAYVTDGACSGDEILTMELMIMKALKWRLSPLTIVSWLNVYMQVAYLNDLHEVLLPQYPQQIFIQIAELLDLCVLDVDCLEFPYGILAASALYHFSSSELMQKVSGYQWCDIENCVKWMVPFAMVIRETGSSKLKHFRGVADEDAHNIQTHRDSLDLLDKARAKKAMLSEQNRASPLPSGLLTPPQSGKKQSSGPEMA
NEK6, sequence (Q9HC98 whole entry): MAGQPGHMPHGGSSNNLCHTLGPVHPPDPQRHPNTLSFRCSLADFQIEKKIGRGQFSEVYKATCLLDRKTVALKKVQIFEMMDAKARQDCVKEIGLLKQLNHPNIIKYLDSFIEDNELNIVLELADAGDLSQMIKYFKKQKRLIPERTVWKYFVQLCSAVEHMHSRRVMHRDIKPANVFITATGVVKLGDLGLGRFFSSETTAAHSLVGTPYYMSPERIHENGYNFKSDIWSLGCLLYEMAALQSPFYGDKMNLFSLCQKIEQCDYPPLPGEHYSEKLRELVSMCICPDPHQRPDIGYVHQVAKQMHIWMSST

Question: What does the source list for `COc1ccc2c3ccnc(Cl)c3n(CC#N)c2c1` [AnnH75]?
Answer: residual activity at 1 µM, Mean [1]: 89 % of control; residual activity at 1 µM, Mean [2]: 95 % of control; residual activity at 1 µM, Mean [3]: 104 % of control; residual activity at 1 µM, Mean [4]: 85 % of control; residual activity at 1 µM, Mean [5]: 59 % of control; residual activity at 1 µM, Mean [6]: 113 % of control; residual activity at 1 µM, Mean [7]: 108 % of control; residual activity at 1 µM, Mean [8]: 92 % of control; residual activity at 1 µM, Mean [9]: 94 % of control; residual activity at 1 µM, Mean [10]: 105 % of control; residual activity at 1 µM, Mean [11]: 71 % of control; residual activity at 1 µM, Mean [12]: 92 % of control; residual activity at 1 µM, Mean [13]: 101 % of control; residual activity at 1 µM, Mean [14]: 98 % of control; residual activity at 1 µM, Mean [15]: 94 % of control; residual activity at 1 µM, Mean [16]: 99 % of control; residual activity at 1 µM, Mean [17]: 101 % of control; residual activity at 1 µM, Mean [18]: 49 % of control; residual activity at 1 µM, Mean [19]: 95 % of control; residual activity at 1 µM, Mean [20]: 81 % of control; residual activity at 1 µM, Mean [21]: 100 % of control; residual activity at 1 µM, Mean [22]: 93 % of control; residual activity at 1 µM, Mean [23]: 93 % of control; residual activity at 1 µM, Mean [24]: 93 % of control; residual activity at 1 µM, Mean [25]: 101 % of control; residual activity at 1 µM, Mean [26]: 103 % of control; residual activity at 1 µM, Mean [27]: 99 % of control; residual activity at 1 µM, Mean [28]: 112 % of control; residual activity at 1 µM, Mean [29]: 92 % of control; effect on MAO-A [30]: complete elimination of MAO-A inhibition; also recorded: no residual effect on MAO-A; IC50 ([30]; n = 3–5 concentration response curves, read-out: Inhibition of MAO-A IC50): > 10 µM; residual activity at 1 µM, Mean [31]: 85 % of control
